Results taken from patent publication US8952024B2, “Herbicidal pyrimidone derivatives” (E I du Pont de Nemours and Company, priority 2009, dated 2015).

Legend:
Type in all cases: in vivo
[1] = system: morningglory (Ipomoea spp.); experiment: Test A pre-/postemergence plant response
Summary of the method: (§1)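 Each species was treated preemergence via directed soil spray and postemergence at the one- to two-leaf stage, with compounds formulated in a non-phytotoxic solvent plus surfactant. Visual injury relative to untreated controls was rated after about ten days on a 0–100 scale.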

[2] = system: wheat (Triticum aestivum); experiment: Test A pre-/postemergence plant response
Summary of the method: as §1

[3] = system: pigweed (Amaranthus retroflexus); experiment: Test A pre-/postemergence plant response
Summary of the method: as §1

[4] = system: barnyardgrass (Echinochloa crus-galli); experiment: Test A pre-/postemergence plant response
Summary of the method: as §1

[5] = system: large crabgrass (Digitaria sanguinalis); experiment: Test A pre-/postemergence plant response
Summary of the method: as §1

[6] = system: velvetleaf (Abutilon theophrasti); experiment: Test A pre-/postemergence plant response
Summary of the method: as §1

[7] = system: giant foxtail (Setaria faberii); experiment: Test A pre-/postemergence plant response
Summary of the method: as §1

corn (Zea mays) = experiment: Test A pre-/postemergence plant response
Summary of the method: as §1

[8] = system: windgrass (Apera spica-venti); experiment: Test B postemergence plant response; conditions: Postemergence
Summary of the method: (§2)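 Plants at the 1- to 4-leaf stage (2 to 18 cm tall), grown in pots of peat moss/vermiculite medium with wetting agent and starter nutrients, received postemergence applications of test chemicals. After 13 to 15 days in a greenhouse, injury was rated visually against untreated controls on a 0 (no effect) to 100 (complete control) scale.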

[9] = system: canarygrass (Phalaris minor); experiment: Test B postemergence plant response; conditions: Postemergence
Summary of the method: as §2

[10] = system: chickweed (Stellaria media); experiment: Test B postemergence plant response; conditions: Postemergence
Summary of the method: as §2

[11] = system: winter barley (Hordeum vulgare); experiment: Test B postemergence plant response; conditions: Postemergence
Summary of the method: as §2

[12] = Postemergence, 125 g ai/ha, 0 to 100 scale where 0 is no effect and 100 is complete control
[13] = Postemergence, 500 g ai/ha, visual injury, 0 to 100 scale (0 no effect, 100 complete control), approx. ten days
[14] = Preemergence, 500 g ai/ha, 0 to 100 scale, 0 = no effect, 100 = complete control
[15] = Preemergence, 125 g ai/ha, 0 to 100 scale, 0 = no effect, 100 = complete control
[16] = 31 g ai/ha, 0 to 100 scale (0 no effect, 100 complete control)
[17] = 62 g ai/ha, scale 0 to 100 (0 no effect, 100 complete control)
[18] = 125 g ai/ha, scale 0 (no effect) to 100 (complete control), 13 to 15 days
[19] = 250 g ai/ha, scale 0 to 100 (0 no effect, 100 complete control), 13 to 15 days

CCn1c(-c2ccccc2)ncc(C(=O)C2=C(O)C3CCC(C3)C2=O)c1=O (centres unmarked) [Compound 239]
Plant response rating, Morningglory [1, 12]: 100 | Morningglory plant response rating [1, 13]: 100 | Plant response rating, Morningglory [1, 14]: 50 | Plant response rating, Wheat [2, 12]: 0 | Wheat plant response rating [2, 13]: 0 | Plant response rating, Wheat [2, 15]: 0 | Plant response rating, Wheat [2, 14]: 30 | Plant response rating, Pigweed [3, 12]: 80 | Pigweed plant response rating [3, 13]: 90 | Plant response rating, Pigweed [3, 15]: 70 | Plant response rating, Pigweed [3, 14]: 100 | Plant response rating, Barnyardgrass [4, 12]: 90 | Barnyardgrass plant response rating [4, 13]: 90 | Plant response rating, Barnyardgrass [4, 15]: 20 | Plant response rating, Barnyardgrass [4, 14]: 80 | Plant response rating, Crabgrass, Large [5, 12]: 80 | Crabgrass, Large plant response rating [5, 13]: 90 | Plant response rating, Crabgrass, Large [5, 15]: 70 | Plant response rating, Crabgrass, Large [5, 14]: 100 | Plant response rating, Velvetleaf [6, 12]: 100 | Velvetleaf plant response rating [6, 13]: 100 | Plant response rating, Velvetleaf [6, 15]: 80 | Plant response rating, Velvetleaf [6, 14]: 100 | Plant response rating, Foxtail, Giant [7, 12]: 70 | Foxtail, Giant plant response rating [7, 13]: 80 | Plant response rating, Foxtail, Giant [7, 15]: 20 | Plant response rating, Foxtail, Giant [7, 14]: 70 | Plant response rating, Corn (corn (Zea mays); [12]): 30 | Corn plant response rating (corn (Zea mays); [13]): 30 | Plant response rating, Corn (corn (Zea mays); [15]): 0 | Plant response rating, Corn (corn (Zea mays); [14]): 0 | Plant response rating, Windgrass [8, 16]: 20 | Plant response rating, Windgrass [8, 17]: 30 | Plant response rating, Windgrass [8, 18]: 30 | Plant response rating, Windgrass [8, 19]: 70 | Plant response rating, Canarygrass [9, 16]: 0 | Plant response rating, Canarygrass [9, 17]: 0 | Plant response rating, Canarygrass [9, 18]: 0 | Plant response rating, Canarygrass [9, 19]: 0 | Plant response rating, Chickweed [10, 16]: 90 | Plant response rating, Chickweed [10, 17]: 98 | Plant response rating, Chickweed [10, 18]: 98 | Plant response rating, Chickweed [10, 19]: 100 | Plant response rating, Barley [11, 16]: 0 | Plant response rating, Barley [11, 17]: 0 | Plant response rating, Barley [11, 18]: 5 | Plant response rating, Barley [11, 19]: 5
